Values of other authors as cited in PMC3738054 (Journal of immunology (Baltimore, Md. : 1950), 2013).

Test system: cerebral malaria
Details: oral inhibitor, murine model of cerebral malaria

Question: For `c1cc(-c2nc3ccc(OCCCN4CCCC4)cc3o2)ccc1OCCCN1CCCC1` [E6446], which “efficacy in mitigating inflammatory injury” value is on record?
Answer: has shown efficacy
